Data from patent publication US9050341B2, “Methods of treating drug resistant and other tumors by administering 6,7-dialkoxy quinazoline derivatives” (NATCO PHARMA LIMITED, priority 2009, dated 2015).

Legend:
[1] = Acute oral toxicity (MTD) in Swiss albino mice; type: in vivo; conditions: for clinical signs of toxicity: oral, 1000 mg/kg (high dose), mono hydrochloride, 1000 mg/kg
Protocol: 20 male and 20 female Swiss albino mice were randomly divided into four groups (G1-G4). Each group was 5 male and 5 female Swiss albino mice. […] G1 was treated with placebo and served as a control. […] The mid dose group animals (G3-treated with 500 mg/kg b.wt) were administered the dose formulation twice with a gap of approximately 1 hour. Animals from high dose group (G4-treated with 1000 mg/kg b.wt) received the dose formulation four times with a gap of approximately one hour.

[2] = Toxicokinetics in the 30 day repeated dose study in beagle dogs; type: in vivo
Protocol: The 30 day repeated dose study employed 12 male and 12 female dogs (Marshall's Farm, China). The dogs were acclimatized for a minimum period of 2 weeks and randomly divided into four main groups (G1-G4), each group comprising of 3 dogs per sex. The animals were dosed orally with capsules of NRC-2694A for a period of 30 consecutive days at dose levels of 10 mg/kg b.wt/day (G2-low dose), 20 mg/kg b.wt/day (G3-mid dose) and 40 mg/kg b.wt/day (G4-high dose). […] The control group (G1-0 mg/kg b. wt/day) animals were dosed by oral capsule with placebo.
The study also tracked body weight (weekly), food consumption (daily), opthalmological status (start and end), hematological and biochemical analyses (start and end), toxicokinetics analysis of plasma (start and end). At the end of the study, all dogs were euthanized by a humane and accepted procedure, subjected to a gross post-mortem examination, organ weights (absolute and relative) were determined, and histopathological examination was carried out.
The toxicokinetic parameters viz.

ABL1 (F317I) = target: T1, ABL1 (F317I) (Homo sapiens, UniProt P00519, F317I); assay: KinomeScan kinase profiling; type: binding
T1 construct: host or cells: E. coli host derived from BL21 (T7 phage lysate)

ACVR1B = target: T2, ACVR1B (Homo sapiens, UniProt P36896); assay: KinomeScan kinase profiling; type: binding
T2 construct: host or cells: E. coli host derived from BL21 (T7 phage lysate)

AKT2 = target: T3, AKT2 (Homo sapiens, UniProt P31751); assay: KinomeScan kinase profiling; type: binding
T3 construct: host or cells: E. coli host derived from BL21 (T7 phage lysate)

EPHA1 = target: T4, EPHA1 (Homo sapiens, UniProt P21709); assay: KinomeScan kinase profiling; type: binding
T4 construct: host or cells: E. coli host derived from BL21, T7 phage lysate
T4 sequence (P21709 26-976): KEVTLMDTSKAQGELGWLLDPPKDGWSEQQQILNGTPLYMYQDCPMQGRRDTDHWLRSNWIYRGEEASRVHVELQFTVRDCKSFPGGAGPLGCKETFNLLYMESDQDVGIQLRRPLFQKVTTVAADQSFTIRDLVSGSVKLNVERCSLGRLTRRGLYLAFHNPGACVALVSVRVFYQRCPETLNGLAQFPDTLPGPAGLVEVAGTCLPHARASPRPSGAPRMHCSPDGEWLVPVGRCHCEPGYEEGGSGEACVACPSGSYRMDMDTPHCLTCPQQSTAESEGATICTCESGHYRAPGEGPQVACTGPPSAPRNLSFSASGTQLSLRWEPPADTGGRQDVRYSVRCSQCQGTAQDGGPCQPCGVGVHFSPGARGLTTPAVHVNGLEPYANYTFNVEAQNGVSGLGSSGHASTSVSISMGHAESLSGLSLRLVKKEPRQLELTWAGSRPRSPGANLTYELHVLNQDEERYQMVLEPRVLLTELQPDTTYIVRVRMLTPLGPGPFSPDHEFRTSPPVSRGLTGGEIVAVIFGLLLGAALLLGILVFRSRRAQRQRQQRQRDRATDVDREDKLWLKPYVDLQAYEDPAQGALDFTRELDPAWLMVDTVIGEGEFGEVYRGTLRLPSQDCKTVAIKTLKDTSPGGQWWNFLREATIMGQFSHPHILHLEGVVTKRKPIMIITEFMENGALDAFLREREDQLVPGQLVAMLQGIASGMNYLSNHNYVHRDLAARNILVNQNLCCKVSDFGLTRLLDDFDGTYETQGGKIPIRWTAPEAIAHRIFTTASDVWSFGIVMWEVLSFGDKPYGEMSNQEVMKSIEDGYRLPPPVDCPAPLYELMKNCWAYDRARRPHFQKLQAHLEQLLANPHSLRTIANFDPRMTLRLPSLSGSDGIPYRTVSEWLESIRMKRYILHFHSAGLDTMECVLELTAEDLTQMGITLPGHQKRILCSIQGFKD

EPHA2 = target: T5, EPHA2 (Homo sapiens, UniProt P29317); assay: KinomeScan kinase profiling; type: binding
T5 construct: host or cells: E. coli host derived from BL21, T7 phage lysate

FGFR1 = target: T6, FGFR1 (Homo sapiens, UniProt P11362); assay: KinomeScan kinase profiling; type: binding
T6 construct: host or cells: E. coli host derived from BL21, infected with T7 phage

FGFR2 = target: T7, FGFR2 (Homo sapiens, UniProt P21802); assay: KinomeScan kinase profiling; type: binding
T7 construct: host or cells: E. coli host derived from BL21, infected with T7 phage

HPK1 = target: T8, HPK1 (Homo sapiens, UniProt Q92918); assay: KinomeScan kinase profiling; type: binding
T8 construct: host or cells: E. coli host derived from BL21, infected with T7 phage
T8 sequence (Q92918 whole entry): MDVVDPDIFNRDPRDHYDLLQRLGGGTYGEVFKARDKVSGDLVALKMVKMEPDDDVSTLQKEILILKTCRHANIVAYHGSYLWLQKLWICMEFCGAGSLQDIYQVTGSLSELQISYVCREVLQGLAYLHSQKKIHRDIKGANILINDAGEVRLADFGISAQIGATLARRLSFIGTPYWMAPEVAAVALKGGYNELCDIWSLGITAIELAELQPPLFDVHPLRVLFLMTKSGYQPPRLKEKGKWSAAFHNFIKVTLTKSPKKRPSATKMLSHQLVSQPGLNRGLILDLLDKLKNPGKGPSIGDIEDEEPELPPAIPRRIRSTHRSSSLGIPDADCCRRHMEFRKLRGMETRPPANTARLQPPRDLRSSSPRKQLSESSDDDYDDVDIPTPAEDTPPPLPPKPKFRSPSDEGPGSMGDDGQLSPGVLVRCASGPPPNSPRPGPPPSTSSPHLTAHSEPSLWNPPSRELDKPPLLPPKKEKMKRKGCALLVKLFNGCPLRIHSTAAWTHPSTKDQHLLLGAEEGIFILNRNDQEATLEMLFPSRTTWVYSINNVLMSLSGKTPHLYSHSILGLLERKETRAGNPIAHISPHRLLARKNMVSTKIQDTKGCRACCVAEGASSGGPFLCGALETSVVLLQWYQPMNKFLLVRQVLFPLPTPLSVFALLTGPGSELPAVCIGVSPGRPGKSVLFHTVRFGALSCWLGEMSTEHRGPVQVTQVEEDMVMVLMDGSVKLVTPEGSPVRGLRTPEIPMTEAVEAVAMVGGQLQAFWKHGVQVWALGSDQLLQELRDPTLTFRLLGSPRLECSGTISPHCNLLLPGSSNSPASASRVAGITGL

IKK-beta = target: T9, IKK-beta (Homo sapiens, UniProt O14920); assay: KinomeScan kinase profiling; type: binding
T9 construct: host or cells: T7 phage in E. coli host derived from BL21

MAPKAPK2 = target: T10, MAPKAPK2 (Homo sapiens, UniProt P49137); assay: KinomeScan kinase profiling; type: binding
T10 construct: host or cells: E. coli derived from BL21, infected with T7 phage
T10 sequence (P49137 whole entry): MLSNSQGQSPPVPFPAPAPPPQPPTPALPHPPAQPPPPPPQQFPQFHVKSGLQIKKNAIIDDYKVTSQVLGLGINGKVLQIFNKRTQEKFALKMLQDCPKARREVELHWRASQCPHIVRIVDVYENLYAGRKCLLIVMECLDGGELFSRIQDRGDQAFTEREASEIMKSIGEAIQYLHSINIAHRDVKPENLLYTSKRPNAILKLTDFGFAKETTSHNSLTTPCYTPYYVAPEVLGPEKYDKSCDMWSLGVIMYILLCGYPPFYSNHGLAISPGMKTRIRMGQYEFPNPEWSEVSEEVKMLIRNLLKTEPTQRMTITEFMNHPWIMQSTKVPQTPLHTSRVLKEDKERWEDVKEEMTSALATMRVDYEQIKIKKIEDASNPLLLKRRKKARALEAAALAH

MARK1 = target: T11, MARK1 (Homo sapiens, UniProt Q9P0L2); assay: KinomeScan kinase profiling; type: binding
T11 construct: host or cells: E. coli derived from BL21, infected with T7 phage
T11 sequence (Q9P0L2 whole entry): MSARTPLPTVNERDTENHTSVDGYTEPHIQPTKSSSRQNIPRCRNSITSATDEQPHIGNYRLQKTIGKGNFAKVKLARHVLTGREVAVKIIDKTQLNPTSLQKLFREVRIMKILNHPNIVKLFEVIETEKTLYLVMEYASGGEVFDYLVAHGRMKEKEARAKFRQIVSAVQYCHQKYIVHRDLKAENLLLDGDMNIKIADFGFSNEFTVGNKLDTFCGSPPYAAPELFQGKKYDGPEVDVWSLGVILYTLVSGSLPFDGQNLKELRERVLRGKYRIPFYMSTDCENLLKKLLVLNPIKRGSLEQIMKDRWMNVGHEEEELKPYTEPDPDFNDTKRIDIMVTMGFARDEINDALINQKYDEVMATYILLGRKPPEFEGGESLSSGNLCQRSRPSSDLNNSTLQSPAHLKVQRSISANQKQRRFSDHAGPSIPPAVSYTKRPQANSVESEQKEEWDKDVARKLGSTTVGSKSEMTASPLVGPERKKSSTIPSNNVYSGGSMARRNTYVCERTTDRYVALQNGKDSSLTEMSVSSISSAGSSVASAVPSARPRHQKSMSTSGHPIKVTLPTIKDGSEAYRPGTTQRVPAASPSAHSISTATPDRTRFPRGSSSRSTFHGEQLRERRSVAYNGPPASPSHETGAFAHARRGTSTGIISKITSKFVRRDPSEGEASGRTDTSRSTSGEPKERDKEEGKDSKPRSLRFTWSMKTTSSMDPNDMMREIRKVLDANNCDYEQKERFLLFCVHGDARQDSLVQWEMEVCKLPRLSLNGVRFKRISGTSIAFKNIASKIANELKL

MARK3 = target: T12, MARK3 (Homo sapiens, UniProt P27448); assay: KinomeScan kinase profiling; type: binding
T12 construct: host or cells: E. coli derived from BL21, infected with T7 phage

MLK3 = target: T13, MLK3 (Homo sapiens, UniProt Q16584); assay: KinomeScan kinase profiling; type: binding
T13 construct: host or cells: T7 phage in E. coli host derived from BL21

MUSK = target: T14, MUSK (Homo sapiens, UniProt O15146); assay: KinomeScan kinase profiling; type: binding
T14 construct: host or cells: T7 phage in E. coli host derived from BL21
T14 sequence (O15146 24-869): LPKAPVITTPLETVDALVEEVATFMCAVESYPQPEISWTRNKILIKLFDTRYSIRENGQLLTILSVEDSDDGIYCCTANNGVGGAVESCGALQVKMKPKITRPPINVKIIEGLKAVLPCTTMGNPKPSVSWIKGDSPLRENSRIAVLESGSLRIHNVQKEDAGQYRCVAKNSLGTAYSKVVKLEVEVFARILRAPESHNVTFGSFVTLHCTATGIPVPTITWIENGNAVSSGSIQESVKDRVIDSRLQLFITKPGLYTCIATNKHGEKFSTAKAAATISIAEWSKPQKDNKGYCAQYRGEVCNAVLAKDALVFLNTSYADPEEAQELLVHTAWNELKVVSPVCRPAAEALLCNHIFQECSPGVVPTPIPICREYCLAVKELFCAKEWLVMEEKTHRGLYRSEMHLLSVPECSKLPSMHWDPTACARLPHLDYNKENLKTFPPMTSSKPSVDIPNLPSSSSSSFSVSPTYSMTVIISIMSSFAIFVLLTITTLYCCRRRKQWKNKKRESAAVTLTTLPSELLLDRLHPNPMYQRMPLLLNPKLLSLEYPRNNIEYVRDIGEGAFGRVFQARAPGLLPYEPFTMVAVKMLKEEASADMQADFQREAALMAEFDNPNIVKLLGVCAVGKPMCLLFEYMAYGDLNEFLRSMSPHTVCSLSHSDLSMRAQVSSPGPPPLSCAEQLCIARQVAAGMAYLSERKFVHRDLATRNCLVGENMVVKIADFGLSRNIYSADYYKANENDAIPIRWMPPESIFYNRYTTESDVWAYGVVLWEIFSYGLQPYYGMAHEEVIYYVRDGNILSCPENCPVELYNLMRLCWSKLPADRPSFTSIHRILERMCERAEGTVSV

PKAC-beta = target: T15, PKAC-beta (Homo sapiens, UniProt P22694); assay: KinomeScan kinase profiling; type: binding
T15 construct: purchased Ambit Biosciences Corp (KinomeScan); host or cells: E. coli host derived from BL21, infected with T7 phage

PKN1 = target: T16, PKN1 (Homo sapiens, UniProt Q16512); assay: KinomeScan kinase profiling; type: binding
T16 construct: purchased Ambit Biosciences Corp (KinomeScan); host or cells: E. coli host derived from BL21, infected with T7 phage

[3] = target: T17, RPS6KA1 (Kin.Dom.-2-C-terminal) (Homo sapiens, UniProt Q15418); assay: KinomeScan kinase profiling; type: binding
T17 construct: RPS6KA1 (Kin.Dom.-2-C-terminal); host or cells: E. coli host derived from BL21, T7 phage lysate

SRPK3 = target: T18, SRPK3 (Homo sapiens, UniProt Q9UPE1); assay: KinomeScan kinase profiling; type: binding
T18 construct: host or cells: E. coli host derived from the BL21 strain, T7 phage lysate
T18 sequence (Q9UPE1 whole entry): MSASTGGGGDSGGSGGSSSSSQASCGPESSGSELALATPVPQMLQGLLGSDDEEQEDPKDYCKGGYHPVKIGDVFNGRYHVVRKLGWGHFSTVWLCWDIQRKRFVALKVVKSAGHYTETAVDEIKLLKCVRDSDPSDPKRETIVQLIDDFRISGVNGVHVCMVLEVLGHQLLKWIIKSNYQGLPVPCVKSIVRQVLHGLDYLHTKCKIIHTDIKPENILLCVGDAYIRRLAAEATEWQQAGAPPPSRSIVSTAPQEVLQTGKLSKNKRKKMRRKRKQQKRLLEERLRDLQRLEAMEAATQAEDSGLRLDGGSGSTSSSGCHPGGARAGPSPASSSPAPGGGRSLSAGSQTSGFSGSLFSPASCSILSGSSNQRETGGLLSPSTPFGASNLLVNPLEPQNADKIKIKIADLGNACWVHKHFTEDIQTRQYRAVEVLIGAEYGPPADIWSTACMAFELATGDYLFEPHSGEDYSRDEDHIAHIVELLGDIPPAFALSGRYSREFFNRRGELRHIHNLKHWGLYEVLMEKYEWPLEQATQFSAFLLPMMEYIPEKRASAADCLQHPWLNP

YANK2 = target: T19, YANK2 (Homo sapiens, UniProt Q9NY57); assay: KinomeScan kinase profiling; type: binding
T19 construct: purchased Ambit Biosciences Corp (KinomeScan); host or cells: E. coli host derived from the BL21 strain (T7 phage lysate)
T19 sequence (Q9NY57 whole entry): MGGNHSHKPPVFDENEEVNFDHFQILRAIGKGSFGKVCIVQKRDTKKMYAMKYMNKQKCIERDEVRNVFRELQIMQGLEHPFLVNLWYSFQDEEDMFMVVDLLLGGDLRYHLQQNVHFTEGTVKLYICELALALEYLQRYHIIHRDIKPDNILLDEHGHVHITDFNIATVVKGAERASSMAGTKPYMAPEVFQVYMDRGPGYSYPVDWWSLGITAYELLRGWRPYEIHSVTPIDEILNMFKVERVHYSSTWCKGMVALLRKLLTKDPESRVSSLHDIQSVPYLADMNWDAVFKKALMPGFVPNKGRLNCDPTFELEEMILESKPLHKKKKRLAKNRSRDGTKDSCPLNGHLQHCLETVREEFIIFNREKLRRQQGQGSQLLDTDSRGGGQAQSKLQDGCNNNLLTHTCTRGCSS

With `C#Cc1cccc(Nc2ncnc3cc(OC)c(OCCCN4CCOCC4)cc23)c1.Cl` [NRC-2694 monohydrochloride, N-(3-ethylnylphenyl)-7-methoxy-6-[3-(4-morpholinyl)propoxy]-4-quinazolinamine mono hydrochloride] the “maximum tolerated dose (MTD)” value ([1]; acute oral gavage, Swiss albino mice) was 1000 mg/kg body weight, the gross pathological examination ([1]; mice, after day 14) was “did not reveal any lesions of pathological significance” and the “mean body weight and percent body weight” value ([1]; mice, compared with control groups) was “No significant alterations”. The “toxic signs or mortality” value ([1]; mice, oral gavage, 250 mg/kg body weight (low dose) and 500 mg/kg (mid dose)) was “did not produce any toxic signs or mortality”, the “clinical signs of toxicity” value ([1]; mice, listed as NRC-2694A blend) was “signs of lethargy and piloerection in all animals without any mortality” and the “clinical signs of toxicity” value ([1]; mice) was “mild lethargy and piloerection”. The mortality ([1]; mice, oral, 250, 500 and 1000 mg/kg, 14 days observation) was “No mortality”, the “median Tmax” value ([2]; day 1, female dogs, 10 mg/kg oral) was 2 h and the “median Tmax” value ([2]; day 1, female dogs, 20 mg/kg oral) was 4 h. For the same molecule, the “median Tmax” value ([2]; day 1, female dogs, 40 mg/kg oral) was 4 h, the “median Tmax” value ([2]; day 1, male dogs, 10 mg/kg oral) was 2 h and the “median Tmax” value ([2]; day 1, male dogs, 20 mg/kg oral) was 3 h. The “median Tmax” value ([2]; day 1, male dogs, 40 mg/kg oral) was 2 h, the “median Tmax” value ([2]; day 30, female dogs, 10 mg/kg oral) was 2 h and the “median Tmax” value ([2]; day 30, female dogs, 20 mg/kg oral) was 4 h. The “median Tmax” value ([2]; day 30, male dogs, 10 mg/kg oral) was 2 h, the “median Tmax” value ([2]; day 30, male dogs, 20 mg/kg oral) was 3 h and the “Cmax, dose dependence” value ([2]; three dose levels, male and female dogs) was “dose-dependent change”.

In the case of `C#Cc1cccc(Nc2ncnc3cc(OC)c(OCCCN4CCOCC4)cc23)c1` [NRC-2694, N-(3-ethylnylphenyl)-7-methoxy-6-[3-(4-morpholinyl)propoxy]-4-quinazolinamine], the “% Ctrl @ 10000 nM” value (ABL1 (F317I)) is reported as 48 % Ctrl, the “% Ctrl @ 10000 nM” value (ACVR1B) is reported as 63 % Ctrl and the “% Ctrl @ 10000 nM” value (AKT2) is reported as 100 % Ctrl. The “% Ctrl @ 10000 nM” value (EPHA1) was 55 % Ctrl, the “% Ctrl @ 10000 nM” value (EPHA2) was 100 % Ctrl and the “% Ctrl @ 10000 nM” value (FGFR1) was 64 % Ctrl. For the same molecule, the “% Ctrl @ 10000 nM” value (FGFR2) was 100 % Ctrl, the “% Ctrl @ 10000 nM” value (HPK1) was 47 % Ctrl and the “% Ctrl @ 10000 nM” value (IKK-beta) was 51 % Ctrl. For the same molecule, the “% Ctrl @ 10000 nM” value (MAPKAPK2) was 90 % Ctrl, the “% Ctrl @ 10000 nM” value (MARK1) was 56 % Ctrl and the “% Ctrl @ 10000 nM” value (MARK3) was 62 % Ctrl. The “% Ctrl @ 10000 nM” value (MLK3) was 72 % Ctrl, the “% Ctrl @ 10000 nM” value (MUSK) was 100 % Ctrl and the “% Ctrl @ 10000 nM” value (PKAC-beta) was 88 % Ctrl. The “% Ctrl @ 10000 nM” value (PKN1) was 50 % Ctrl, the “% Ctrl @ 10000 nM” value [3] was 49 % Ctrl and the “% Ctrl @ 10000 nM” value (SRPK3) was 38 % Ctrl. For the same molecule, the “% Ctrl @ 10000 nM” value (YANK2) was 68 % Ctrl.
